Data published in US6071919A, “Zwitterionic compositions and methods as biological response modifiers” (priority 1998, dated 2000).
Like-named read-outs stand apart in the source and are kept apart here. Where a SMILES comes first, the peptide text is derived from it.

Assays:
[1] = cited from earlier work; for αpKa /° C.: change of pKa per ° C.
[2] = ADA: data of Schwarzenbach et al. (1955); cited from earlier work
[3] = ADA: data of Schwarzenbach et al. (1955); cited from earlier work; remark: listed apart in the source
[4] = ADA: data of Schwarzenbach et al. (1955); cited from earlier work; remark: listed apart in the source
[5] = ADA: data of Schwarzenbach et al. (1955); cited from earlier work; remark: listed apart in the source
[6] = cited from earlier work
[7] = test system: cancer tumors; assay: Macrophage infiltration of tumors; format: in vivo, dogs; conditions: dogs
Text: (§1) The amphoteric zwitterion compounds may be employed as active ingredients with other active ingredients, as well as other components and carriers typically used in pharmaceutical compositions; such as, but not limited to: buffers, stabilizers, dyes, antioxidants, dispersing agents, fillers, surfactants, silicones, bulking agents, pigments, salts, human or animal (natural or synthetic) cells and cellular components, antibiotics, drugs, vitamins, amino acids, proteins, serum and various other compounds and combinations thereof in varying amounts.

[8] = test system: giant platelets and histiocytes; assay: Giant platelets and histiocytes on peripheral smear; format: in vivo, animals; conditions: blood / peripheral smear
Text: as §1

[9] = as the hydrochloride (footnote b)

SMILES: NC(=O)CNCC(=O)O [Acetamidoglycine, Acetamido-glycine]
- pKa at 20° [1]: ~7.7

SMILES: NCC(=O)NCC(=O)O [Glycylglycine] (H-Gly-Gly-OH)
- Metal-Buffer Binding Constants Log KM, Cu^2+ [2]: 5.8
- pKa at 20° [1]: 8.4
- Metal-Buffer Binding Constants Log KM, Mn^2+ [3]: 1.7

SMILES: O=C(O)CNC(CO)(CO)CO [Tricine]
- Metal-Buffer Binding Constants Log KM, Ca^2+ [4]: 2.4
- Metal-Buffer Binding Constants Log KM, Cu^2+ [2]: 7.3
- Metal-Buffer Binding Constants Log KM, Mg^2+ [5]: 1.2
- Saturated Solution at 0° [6]: 0.8 M

SMILES: C[N+](C)(C)CCN [Cholamine chloride]
- Metal-Buffer Binding Constants Log KM, Ca^2+ [4]: Negl
- Metal-Buffer Binding Constants Log KM, Cu^2+ [2]: Negl
- Metal-Buffer Binding Constants Log KM, Mg^2+ [5]: Negl
- Saturated Solution at 0° [6, 9]: 4.2 M
- pKa at 20° [1]: 7.1
- αpKa /° C. [1]: -0.027
- Metal-Buffer Binding Constants Log KM, Mn^2+ [3]: Negl

SMILES: O=C(O)CN(CCO)CCO [Bicine]
- Metal-Buffer Binding Constants Log KM, Ca^2+ [4]: 2.8
- Metal-Buffer Binding Constants Log KM, Mg^2+ [5]: 1.5
- αpKa /° C. [1]: -0.018

SMILES: O=S(=O)(O)CCNC(CO)(CO)CO [TES]
- Metal-Buffer Binding Constants Log KM, Ca^2+ [4]: Negl
- Metal-Buffer Binding Constants Log KM, Cu^2+ [2]: 3.2
- Metal-Buffer Binding Constants Log KM, Mg^2+ [5]: Negl
- Saturated Solution at 0° [6]: 2.6 M
- pKa at 20° [1]: 7.5
- Metal-Buffer Binding Constants Log KM, Mn^2+ [3]: Negl

SMILES: NC(CO)(CO)CO [Tris]
- Metal-Buffer Binding Constants Log KM, Ca^2+ [4]: Negl
- Metal-Buffer Binding Constants Log KM, Mg^2+ [5]: Negl
- Saturated Solution at 0° [6]: 2.4 M
- Metal-Buffer Binding Constants Log KM, Mn^2+ [3]: Negl

SMILES: O=S(=O)(O)CCN1CCN(CCS(=O)(=O)O)CC1 [PIPES]
- Metal-Buffer Binding Constants Log KM, Ca^2+ [4]: Negl
- Metal-Buffer Binding Constants Log KM, Cu^2+ [2]: Negl
- Metal-Buffer Binding Constants Log KM, Mg^2+ [5]: Negl
- macrophage infiltration of cancer tumors [7]: macrophage infiltration of cancer tumors in dogs
- giant platelets and histiocytes [8]: production of giant platelets and histiocytes
- Metal-Buffer Binding Constants Log KM, Mn^2+ [3]: Negl

SMILES: NC(=O)CNCCS(=O)(=O)O [ACES]
- Metal-Buffer Binding Constants Log KM, Cu^2+ [2]: 4.6
- Saturated Solution at 0° [6]: 0.22 M
- pKa at 20° [1]: 6.9
- αpKa /° C. [1]: -0.020
- Metal-Buffer Binding Constants Log KM, Mn^2+ [3]: Negl

SMILES: NCC(N)=O [Glycinamide]
- Saturated Solution at 0° [6, 9]: 4.6 M
- pKa at 20° [1]: 8.2
- αpKa /° C. [1]: -0.029

SMILES: NC(=O)CN(CC(=O)O)CC(=O)O [ADA]
- Metal-Buffer Binding Constants Log KM, Ca^2+ [4]: 4.0
- Metal-Buffer Binding Constants Log KM, Cu^2+ [2]: 9.7
- Metal-Buffer Binding Constants Log KM, Mg^2+ [5]: 2.5
- pKa at 20° [1]: 6.6
- Metal-Buffer Binding Constants Log KM, Mn^2+ [3]: 4.9

SMILES: O=S(=O)(O)CCN(CCO)CCO [BES]
- Metal-Buffer Binding Constants Log KM, Ca^2+ [4]: Negl
- Metal-Buffer Binding Constants Log KM, Cu^2+ [2]: 3.5
- Metal-Buffer Binding Constants Log KM, Mg^2+ [5]: Negl
- pKa at 20° [1]: 7.15
- Metal-Buffer Binding Constants Log KM, Mn^2+ [3]: Negl

SMILES: O=S(=O)(O)CCN1CCOCC1 [MES]
- Metal-Buffer Binding Constants Log KM, Cu^2+ [2]: Negl
